Key:
[1] = system: antibodies in sera from SARS patients (sera 1a, 1b, 2, 6, 37, 62, London, SARS-yellow, SARS-green); format: binding, human; parameters: Binding of serum 6 to linear peptides of protein X1 of SARS-CoV Urbani / Binding of serum 37 to linear peptides of protein X1 of SARS-CoV Urbani / Binding of serum 6 to looped/cyclic peptide (PEPSCAN-ELISA) / Binding of serum 37 to looped/cyclic peptide (PEPSCAN-ELISA) / Binding of serum 37 to looped/cyclic peptides of protein X1 of SARS-CoV Urbani / Binding of serum 6 to linear peptides of protein X2 / Binding of serum 37 to linear peptides of protein X2 / Binding of serum 37 to looped/cyclic peptides of protein X2 of SARS-CoV Urbani / Binding of serum 6 to linear peptides of protein M of SARS-CoV Urbani / Binding of serum 37 to linear peptides of protein M of SARS-CoV Urbani / Binding of serum 6 to looped/cyclic peptides of protein M of SARS-CoV Urbani / Binding of serum 37 to looped/cyclic peptides of protein M of SARS-CoV Urbani / Binding of serum 6 to linear peptides of protein X3 of SARS-CoV Urbani / Binding of serum 37 to linear peptides of protein X3 of SARS-CoV Urbani / Binding of serum 37 to looped/cyclic peptides of protein X3 of SARS-CoV Urbani / Binding of serum 6 to linear peptides of protein X4 of SARS-CoV Urbani / Binding of serum 37 to linear peptides of protein X4 of SARS-CoV Urbani / Binding of serum 37 to looped/cyclic peptides of protein X4 of SARS-CoV Urbani / Binding of serum 6 to linear peptides of protein X5 of SARS-CoV Urbani / Binding of serum 37 to linear peptides of protein X5 of SARS-CoV Urbani / Binding of serum 37 to looped/cyclic peptides of protein X5 of SARS-CoV Urbani / Binding of serum 6 to linear peptides of protein N of SARS-CoV Urbani / Binding of serum 37 to linear peptides of protein N of SARS-CoV Urbani / Binding of serum 6 to linear peptide (PEPSCAN-ELISA) / Binding of serum 1a to looped/cyclic peptides of protein N of SARS-CoV Urbani / Binding of serum 1b to looped/cyclic peptides of protein N of SARS-CoV Urbani / Binding of serum 2 to looped/cyclic peptides of protein N of SARS-CoV Urbani / Binding of serum 6 to looped/cyclic peptides of protein N of SARS-CoV Urbani / Binding of serum 37 to looped/cyclic peptides of protein N of SARS-CoV Urbani / Binding of serum 62 to looped/cyclic peptides of protein N of SARS-CoV Urbani / Binding of serum London to looped/cyclic peptides of protein N of SARS-CoV Urbani / Binding of serum SARS-green to looped/cyclic peptides of protein N of SARS-CoV Urbani: unit not given here
[2] = system: control sera (pooled serum of ten healthy LUMC hospital workers; commercial negative donor pooled serum from the Dutch bloodbank); format: binding, human; parameters: Binding of Control serum LUMC to linear peptides / Binding of Control serum Blood-bank to linear peptides / Binding of Control serum LUMC to looped peptides / Binding of Control Serum Blood-Bank to Looped peptides / Binding of Control serum LUMC to linear peptides of the protein M of SARS-CoV Urbani / Binding of Control serum Blood-bank to linear peptides of the protein M of SARS-CoV Urbani / Binding of Control serum LUMC to looped peptides of the protein M of SARS-CoV Urbani / Binding of Control Serum Blood-Bank to Looped peptides of the protein M of SARS-CoV Urbani: unit not given here
[3] = system: rabbit serum obtained by immunizing a rabbit with the SARS-CoV strain Frankfurt 1; format: binding; parameters: Binding of a rabbit serum to linear peptides / Binding of a rabbit serum to looped peptides / Rabbit serum linear peptides / Rabbit serum looped peptides / Binding of a rabbit serum to linear peptides of protein N of SARS-CoV Urbani (Rabbit serum linear peptides) / Binding of a rabbit serum to looped/cyclic peptides of protein N of SARS-CoV Urbani (Rabbit serum looped peptides): unit not given here

AILTALRLCAYCCNI
0.6: Binding of serum 1a to linear peptides of protein E of SARS-CoV Urbani [1] | Binding of serum 1b to looped/cyclic peptides of protein E of SARS-CoV Urbani [1] | Binding of Control Serum Blood-Bank to Looped peptides [2] | Binding of Control serum Blood-bank to linear peptides [2] | Binding of Control serum LUMC to linear peptides [2] | Binding of a rabbit serum to looped peptides [3]
0.9: Binding of serum SARS-yellow to looped/cyclic peptides of protein E of SARS-CoV Urbani [1]
0.3: Binding of serum 6 to linear peptides of protein E of SARS-CoV Urbani [1]
0.7: Binding of serum 2 to looped/cyclic peptides of protein E of SARS-CoV Urbani [1] | Binding of serum 37 to looped/cyclic peptides of protein E of SARS-CoV Urbani [1]
0.8: Binding of serum 1a to looped/cyclic peptides of protein E of SARS-CoV Urbani [1] | Binding of serum 62 to looped/cyclic peptides of protein E of SARS-CoV Urbani [1] | Binding of Control serum LUMC to looped peptides [2]
0.5: Binding of serum 2 to linear peptides of protein E of SARS-CoV Urbani [1] | Binding of serum 6 to looped/cyclic peptides of protein E of SARS-CoV Urbani [1] | Binding of serum London to linear peptides of protein E of SARS-CoV Urbani [1] | Binding of serum SARS-green to linear peptides of protein E of SARS-CoV Urbani [1] | Binding of serum SARS-green to looped/cyclic peptides of protein E of SARS-CoV Urbani [1]
0.2: Binding of a rabbit serum to linear peptides [3]
0.4: Binding of serum 1b to linear peptides of protein E of SARS-CoV Urbani [1] | Binding of serum 37 to linear peptides of protein E of SARS-CoV Urbani [1] | Binding of serum 62 to linear peptides of protein E of SARS-CoV Urbani [1] | Binding of serum London to looped/cyclic peptides of protein E of SARS-CoV Urbani [1]
0.1: Binding of serum SARS-yellow to linear peptides of protein E of SARS-CoV Urbani [1]

ETGTLIVNSVLLFLA
0.0: Binding of a rabbit serum to looped peptides [3]
0.6: Binding of serum SARS-green to linear peptides of protein E of SARS-CoV Urbani [1]
0.4: Binding of serum 1b to looped/cyclic peptides of protein E of SARS-CoV Urbani [1] | Binding of serum 6 to looped/cyclic peptides of protein E of SARS-CoV Urbani [1] | Binding of serum 37 to linear peptides of protein E of SARS-CoV Urbani [1] | Binding of serum 62 to linear peptides of protein E of SARS-CoV Urbani [1] | Binding of serum London to looped/cyclic peptides of protein E of SARS-CoV Urbani [1] | Binding of serum SARS-yellow to linear peptides of protein E of SARS-CoV Urbani [1]
0.8: Binding of serum 1a to linear peptides of protein E of SARS-CoV Urbani [1] | Binding of serum 2 to linear peptides of protein E of SARS-CoV Urbani [1] | Binding of serum London to linear peptides of protein E of SARS-CoV Urbani [1] | Binding of Control serum LUMC to linear peptides [2]
0.3: Binding of serum SARS-green to looped/cyclic peptides of protein E of SARS-CoV Urbani [1] | Binding of a rabbit serum to linear peptides [3]
0.5: Binding of serum 1a to looped/cyclic peptides of protein E of SARS-CoV Urbani [1] | Binding of serum 2 to looped/cyclic peptides of protein E of SARS-CoV Urbani [1] | Binding of serum 6 to linear peptides of protein E of SARS-CoV Urbani [1] | Binding of serum 37 to looped/cyclic peptides of protein E of SARS-CoV Urbani [1] | Binding of serum SARS-yellow to looped/cyclic peptides of protein E of SARS-CoV Urbani [1] | Binding of Control Serum Blood-Bank to Looped peptides [2] | Binding of Control serum Blood-bank to linear peptides [2] | Binding of Control serum LUMC to looped peptides [2]
0.7: Binding of serum 1b to linear peptides of protein E of SARS-CoV Urbani [1] | Binding of serum 62 to looped/cyclic peptides of protein E of SARS-CoV Urbani [1]

FLAFVVFLLVTLAIL
0.6: Binding of serum 2 to looped/cyclic peptides of protein E of SARS-CoV Urbani [1] | Binding of serum 37 to looped/cyclic peptides of protein E of SARS-CoV Urbani [1] | Binding of Control serum LUMC to looped peptides [2]
0.3: Binding of serum 37 to linear peptides of protein E of SARS-CoV Urbani [1] | Binding of serum SARS-yellow to linear peptides of protein E of SARS-CoV Urbani [1]
0.5: Binding of serum 1a to looped/cyclic peptides of protein E of SARS-CoV Urbani [1] | Binding of serum 1b to linear peptides of protein E of SARS-CoV Urbani [1] | Binding of serum 1b to looped/cyclic peptides of protein E of SARS-CoV Urbani [1] | Binding of serum 6 to looped/cyclic peptides of protein E of SARS-CoV Urbani [1] | Binding of serum SARS-yellow to looped/cyclic peptides of protein E of SARS-CoV Urbani [1]
0.2: Binding of serum 2 to linear peptides of protein E of SARS-CoV Urbani [1] | Binding of a rabbit serum to looped peptides [3]
0.1: Binding of serum 62 to linear peptides of protein E of SARS-CoV Urbani [1]
0.8: Binding of Control Serum Blood-Bank to Looped peptides [2]
0.4: Binding of serum 6 to linear peptides of protein E of SARS-CoV Urbani [1] | Binding of serum London to linear peptides of protein E of SARS-CoV Urbani [1] | Binding of serum London to looped/cyclic peptides of protein E of SARS-CoV Urbani [1] | Binding of serum SARS-green to looped/cyclic peptides of protein E of SARS-CoV Urbani [1] | Binding of Control serum Blood-bank to linear peptides [2] | Binding of Control serum LUMC to linear peptides [2]
0.7: Binding of serum 1a to linear peptides of protein E of SARS-CoV Urbani [1] | Binding of serum 62 to looped/cyclic peptides of protein E of SARS-CoV Urbani [1] | Binding of serum SARS-green to linear peptides of protein E of SARS-CoV Urbani [1]
0.0: Binding of a rabbit serum to linear peptides [3]

FNPETNILLNVPLRG
0.3: Binding of serum London to linear peptides of protein M of SARS-CoV Urbani [1] | Binding of serum London to looped/cyclic peptides of protein M of SARS-CoV Urbani [1] | Binding of serum SARS-green to looped/cyclic peptides of protein M of SARS-CoV Urbani [1]
0.7: Binding of serum 2 to looped/cyclic peptides of protein M of SARS-CoV Urbani [1] | Binding of serum 6 to looped/cyclic peptides of protein M of SARS-CoV Urbani [1] | Binding of Control serum LUMC to linear peptides of the protein M of SARS-CoV Urbani [2]
0.5: Binding of serum 2 to linear peptides of protein M of SARS-CoV Urbani [1] | Binding of serum 6 to linear peptides of protein M of SARS-CoV Urbani [1] | Binding of serum 37 to linear peptides of protein M of SARS-CoV Urbani [1] | Binding of serum SARS-green to linear peptides of protein M of SARS-CoV Urbani [1]
0.9: Binding of serum 37 to looped/cyclic peptides of protein M of SARS-CoV Urbani [1] | Binding of Control serum LUMC to looped peptides of the protein M of SARS-CoV Urbani [2]
0.2: Binding of serum SARS-yellow to linear peptides of protein M of SARS-CoV Urbani [1]
0.4: Binding of serum 62 to linear peptides of protein M of SARS-CoV Urbani [1] | Rabbit serum looped peptides [3]
0.8: Binding of serum 1a to linear peptides of protein M of SARS-CoV Urbani [1] | Binding of serum 1a to looped/cyclic peptides of protein M of SARS-CoV Urbani [1] | Binding of serum 1b to looped/cyclic peptides of protein M of SARS-CoV Urbani [1] | Binding of serum 62 to looped/cyclic peptides of protein M of SARS-CoV Urbani [1] | Binding of serum SARS-yellow to looped/cyclic peptides of protein M of SARS-CoV Urbani [1] | Binding of Control Serum Blood-Bank to Looped peptides of the protein M of SARS-CoV Urbani [2]
0.0: Rabbit serum linear peptides [3]
0.6: Binding of serum 1b to linear peptides of protein M of SARS-CoV Urbani [1] | Binding of Control serum Blood-bank to linear peptides of the protein M of SARS-CoV Urbani [2]

FVVFLLVTLAILTAL
0.7: Binding of Control Serum Blood-Bank to Looped peptides [2]
0.5: Binding of serum 2 to linear peptides of protein E of SARS-CoV Urbani [1] | Binding of serum 37 to looped/cyclic peptides of protein E of SARS-CoV Urbani [1] | Binding of serum London to linear peptides of protein E of SARS-CoV Urbani [1] | Binding of serum SARS-green to linear peptides of protein E of SARS-CoV Urbani [1] | Binding of Control serum Blood-bank to linear peptides [2] | Binding of Control serum LUMC to linear peptides [2]
0.2: Binding of serum SARS-yellow to linear peptides of protein E of SARS-CoV Urbani [1] | Binding of a rabbit serum to linear peptides [3] | Binding of a rabbit serum to looped peptides [3]
0.3: Binding of serum 6 to linear peptides of protein E of SARS-CoV Urbani [1] | Binding of serum 62 to linear peptides of protein E of SARS-CoV Urbani [1]
0.6: Binding of serum 1a to linear peptides of protein E of SARS-CoV Urbani [1] | Binding of serum 6 to looped/cyclic peptides of protein E of SARS-CoV Urbani [1] | Binding of serum 62 to looped/cyclic peptides of protein E of SARS-CoV Urbani [1] | Binding of serum SARS-yellow to looped/cyclic peptides of protein E of SARS-CoV Urbani [1] | Binding of Control serum LUMC to looped peptides [2]
0.4: Binding of serum 1a to looped/cyclic peptides of protein E of SARS-CoV Urbani [1] | Binding of serum 1b to linear peptides of protein E of SARS-CoV Urbani [1] | Binding of serum 1b to looped/cyclic peptides of protein E of SARS-CoV Urbani [1] | Binding of serum 2 to looped/cyclic peptides of protein E of SARS-CoV Urbani [1] | Binding of serum 37 to linear peptides of protein E of SARS-CoV Urbani [1] | Binding of serum London to looped/cyclic peptides of protein E of SARS-CoV Urbani [1] | Binding of serum SARS-green to looped/cyclic peptides of protein E of SARS-CoV Urbani [1]
